Earlier results on one compound are cited in paper PMC9906001 (Pulmonary Circulation, 2023).

The subject of the series is Japanese patients with pulmonary arterial hypertension. The note with it: lowest value among 5, 15, or 30 min after inhalation at Week 12, IBUKI study; cited from earlier work.

Take `CC#CCC(C)[C@H](O)/C=C/[C@@H]1[C@H]2C/C(=C/CCCC(=O)O)C[C@H]2C[C@H]1O` (stereo partly shown) [iloprost]: the “Best change from baseline in mPAP” value is −6.75 mmHg.
